Here are results for 15 molecules from PubChem BioAssay (NCI).

Among the test systems are MDA-MB-231 breast; PC-3 prostate; SR leukemia; T-47D breast; HS 578T breast; DU-145 prostate; BT-549 breast; TK-10 renal; NCI/ADR-RES ovarian; DMS 273 small cell lung; M19-MEL melanoma; DMS 114 small cell lung.
Assay in all cases: NCI-60 cell line screen, 48 h

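Where inhibition never reached the appropriate level, the endpoint shown equals the highest concentration tested. Otherwise, values were interpolated linearly from a five-concentration, 48-hour dose response in 96-well plates. GI50 is the concentration that inhibits growth by half. TGI is the concentration that stops growth completely.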

For the molecule `CCC(C)NC1=NCC(C)S1` (stereo not drawn), the TGI with MDA-MB-231 breast, with PC-3 prostate, in the test with SR leukemia, in the test on T-47D breast, in the test with HS 578T breast and in the test with DU-145 prostate was more than 100 µM throughout. The same molecule had a TGI in the test on BT-549 breast of more than 100 µM.

As for `CCOP(=O)(OCC)C(c1ccc(F)cc1)N(C(=O)NC(F)(F)F)c1cccc(C(F)(F)F)c1` (stereo not drawn), the TGI in the test on MDA-MB-231 breast, in the test with PC-3 prostate, with SR leukemia, with TK-10 renal, in the test on T-47D breast and in the test on NCI/ADR-RES ovarian was more than 100 µM throughout. The TGI in the test on HS 578T breast, in the test with DU-145 prostate and in the test on BT-549 breast was more than 100 µM in each case.

For the molecule `C=C(C)[C@H]1Cc2c(ccc3c2O[C@@H]2COc4cc(OC)c(OC)cc4[C@@H]2C3=O)O1`, the TGI with MDA-MB-231 breast is 44.7 µM; with PC-3 prostate, 47.5 µM; with SR leukemia, 22.2 µM; with DMS 273 small cell lung, 18.3 µM; in the test on TK-10 renal it was 54.5 µM; in the test with T-47D breast it was more than 97.1 µM. Further, the TGI with M19-MEL melanoma was more than 73 µM; in the test on HS 578T breast, 0.488 µM; in the test with DU-145 prostate, 38.9 µM; in the test on DMS 114 small cell lung it was 0.145 µM; with BT-549 breast it was 9.23 µM.

On to `COc1ccccc1CNCCCN1C(=O)c2ccc3c4c(ccc(c24)C1=O)C(=O)N(CCCNCCNCCCN)C3=O`, for which the GI50 with MDA-MB-231 breast is 2.09 µM; in the test on PC-3 prostate, 5.91 µM; in the test with TK-10 renal it was 6.65 µM; with T-47D breast, 1.51 µM; with NCI/ADR-RES ovarian it was 23.1 µM; in the test on HS 578T breast it was 5.51 µM. Further, the values for the GI50 in the test with DU-145 prostate and with BT-549 breast were 3.65 µM and 2.58 µM, respectively. Moreover, the TGI in the test with MDA-MB-231 breast is more than 100 µM; in the test on PC-3 prostate, 80.2 µM; in the test on TK-10 renal it was 44.7 µM; in the test with T-47D breast, 4.99 µM; with NCI/ADR-RES ovarian it was more than 100 µM; in the test with HS 578T breast, 42.9 µM. Further, the TGI amounted to 12.5 µM with DU-145 prostate and 6.43 µM with BT-549 breast.

For `CCOC(=O)CNC(=O)N(CC)C12CC3CC(CC(C3)C1)C2`, the TGI in the test on DMS 273 small cell lung is 315 µM; in the test with NCI/ADR-RES ovarian it was 402 µM; in the test on M19-MEL melanoma, 380 µM; in the test with DMS 114 small cell lung, 274 µM.

In the case of `CC1CC2=C(S(=O)(=O)c3ccccc3)CC(S(=O)(=O)c3ccccc3)(S(=O)(=O)c3ccccc3)CC21` (stereo not drawn), the TGI in the test with SR leukemia, in the test with DMS 273 small cell lung, in the test with TK-10 renal and in the test with DMS 114 small cell lung was more than 100 µM throughout.

In the case of `CCOC(=O)Cn1c(=O)ccn(COCCO)c1=O`, the TGI in the test on MDA-MB-231 breast, in the test with PC-3 prostate, with TK-10 renal, in the test with T-47D breast, in the test with NCI/ADR-RES ovarian and with HS 578T breast was more than 100 µM throughout. For the same molecule, the TGI in the test with DU-145 prostate and in the test with BT-549 breast was more than 100 µM each time.

In the case of `COCc1nc2c(OC)c(-c3nc4nc(N5CCN(C)CC5)ccc4[nH]3)cc(OC)c2n1C`, the TGI in the test with MDA-MB-231 breast is 46.4 µM; in the test on PC-3 prostate, 63.4 µM; with T-47D breast it was more than 100 µM; in the test on NCI/ADR-RES ovarian it was more than 100 µM; in the test on HS 578T breast, more than 100 µM; in the test with DU-145 prostate, more than 100 µM. The same molecule displayed a TGI with BT-549 breast of more than 100 µM.

As to `NNC(=O)c1c(SCc2ccccc2)nc2c3ccccc3ccn12`, the TGI in the test with MDA-MB-231 breast is 87.9 µM; in the test on PC-3 prostate, more than 100 µM; in the test on TK-10 renal it was more than 100 µM; with T-47D breast, 72.1 µM; with NCI/ADR-RES ovarian, more than 100 µM; with HS 578T breast, more than 100 µM. For the same molecule, the TGI was more than 100 µM in the test on DU-145 prostate and 70.2 µM in the test on BT-549 breast.

Regarding `C/C(=N/NC(N)=S)c1ccc[nH]1`, the TGI in the test with MDA-MB-231 breast, in the test on PC-3 prostate, in the test with TK-10 renal, in the test on T-47D breast, with NCI/ADR-RES ovarian and in the test with HS 578T breast was more than 100 µM throughout. Moreover, the TGI with DU-145 prostate and in the test with BT-549 breast was more than 100 µM in each case.

`COc1ccc(S(=O)(=O)c2ccccc2[N+](=O)[O-])cc1`: the TGI in the test on SR leukemia, in the test on DMS 273 small cell lung, with TK-10 renal, with M19-MEL melanoma and with DMS 114 small cell lung was more than 100 µM in each case.

Regarding `COc1cc2oc(-c3ccc(O)cc3)c(OC)c(=O)c2c(O)c1OC`, the GI50 in the test with PC-3 prostate is 40.6 µM; in the test with TK-10 renal, 62.4 µM; with NCI/ADR-RES ovarian, 30.9 µM; in the test with DU-145 prostate, 18.3 µM; in the test on BT-549 breast, 27.7 µM. The TGI in the test with PC-3 prostate, in the test on TK-10 renal, with NCI/ADR-RES ovarian, in the test with DU-145 prostate and in the test with BT-549 breast was more than 100 µM each time.

Regarding `CC(=O)Nc1ccc(/C=C/c2ccc(NC(=O)Nc3ccc(/C=C/c4ccc(NC(C)=O)cc4S(=O)(=O)O)c(S(=O)(=O)O)c3)cc2S(=O)(=O)O)c(S(=O)(=O)O)c1`, the TGI in the test with DMS 273 small cell lung, in the test on NCI/ADR-RES ovarian, in the test with M19-MEL melanoma and in the test with DMS 114 small cell lung was more than 100 µM in each case.

Consider `COCCCNc1nc(N)c(C#N)c(C#N)c1C#N`, for which the TGI in the test on MDA-MB-231 breast, in the test on PC-3 prostate, with SR leukemia, in the test with TK-10 renal, in the test with T-47D breast and in the test on NCI/ADR-RES ovarian was more than 10 µM in each case. For the same molecule, the TGI in the test with HS 578T breast and with DU-145 prostate was more than 10 µM in each case.

As to `CCOC(=O)c1ccc(N[C@@H]2c3cc4c(cc3C(c3cc(OC)c(O)c(OC)c3)[C@H]3C(=O)OCC32)OCO4)cc1O` (stereo partly drawn), the TGI in the test on DMS 273 small cell lung is 1.77 µM; in the test on NCI/ADR-RES ovarian, 99.3 µM; with M19-MEL melanoma, more than 55.1 µM; with DMS 114 small cell lung it was 2.03 µM.
